Columns and labels:
[1] = tested on: Receptor-type tyrosine-protein kinase FLT3 (Homo sapiens), P36888 [UNDEFINED MUTATION]; experiment: Inhibition of FLT3 ITD mutant (unknown origin) assessed as residual activity at 100 nM by KINOMEscan analysis relative to control
[2] = biological target: Receptor-interacting serine/threonine-protein kinase 2 (Homo sapiens) (UniProt O43353); experiment: Inhibition of RIPK2 (unknown origin) assessed as residual activity at 100 nM by KINOMEscan analysis relative to control
Receptor-interacting serine/threonine-protein kinase 2 (Homo sapiens), sequence (O43353 whole entry): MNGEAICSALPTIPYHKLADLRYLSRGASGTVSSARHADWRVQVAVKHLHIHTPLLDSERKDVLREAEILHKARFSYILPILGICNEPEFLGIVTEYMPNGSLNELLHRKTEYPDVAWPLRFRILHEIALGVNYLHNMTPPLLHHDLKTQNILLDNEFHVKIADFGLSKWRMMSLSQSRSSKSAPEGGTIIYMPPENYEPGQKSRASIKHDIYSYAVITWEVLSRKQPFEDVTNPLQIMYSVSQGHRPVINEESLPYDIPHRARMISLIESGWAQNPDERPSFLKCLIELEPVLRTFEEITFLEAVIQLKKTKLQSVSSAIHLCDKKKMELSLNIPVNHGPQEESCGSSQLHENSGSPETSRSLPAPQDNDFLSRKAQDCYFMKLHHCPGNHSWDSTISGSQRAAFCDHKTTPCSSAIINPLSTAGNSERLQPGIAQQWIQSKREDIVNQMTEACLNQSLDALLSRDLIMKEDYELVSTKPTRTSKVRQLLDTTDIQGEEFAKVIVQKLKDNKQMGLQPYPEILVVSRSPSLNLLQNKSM

[3] = biological target: T1, Ephrin type-A receptor 8 (Homo sapiens) (UniProt P29322); experiment: Inhibition of EPHA8 (unknown origin) assessed as residual activity at 100 nM by KINOMEscan analysis relative to control
T1 sequence (whole entry): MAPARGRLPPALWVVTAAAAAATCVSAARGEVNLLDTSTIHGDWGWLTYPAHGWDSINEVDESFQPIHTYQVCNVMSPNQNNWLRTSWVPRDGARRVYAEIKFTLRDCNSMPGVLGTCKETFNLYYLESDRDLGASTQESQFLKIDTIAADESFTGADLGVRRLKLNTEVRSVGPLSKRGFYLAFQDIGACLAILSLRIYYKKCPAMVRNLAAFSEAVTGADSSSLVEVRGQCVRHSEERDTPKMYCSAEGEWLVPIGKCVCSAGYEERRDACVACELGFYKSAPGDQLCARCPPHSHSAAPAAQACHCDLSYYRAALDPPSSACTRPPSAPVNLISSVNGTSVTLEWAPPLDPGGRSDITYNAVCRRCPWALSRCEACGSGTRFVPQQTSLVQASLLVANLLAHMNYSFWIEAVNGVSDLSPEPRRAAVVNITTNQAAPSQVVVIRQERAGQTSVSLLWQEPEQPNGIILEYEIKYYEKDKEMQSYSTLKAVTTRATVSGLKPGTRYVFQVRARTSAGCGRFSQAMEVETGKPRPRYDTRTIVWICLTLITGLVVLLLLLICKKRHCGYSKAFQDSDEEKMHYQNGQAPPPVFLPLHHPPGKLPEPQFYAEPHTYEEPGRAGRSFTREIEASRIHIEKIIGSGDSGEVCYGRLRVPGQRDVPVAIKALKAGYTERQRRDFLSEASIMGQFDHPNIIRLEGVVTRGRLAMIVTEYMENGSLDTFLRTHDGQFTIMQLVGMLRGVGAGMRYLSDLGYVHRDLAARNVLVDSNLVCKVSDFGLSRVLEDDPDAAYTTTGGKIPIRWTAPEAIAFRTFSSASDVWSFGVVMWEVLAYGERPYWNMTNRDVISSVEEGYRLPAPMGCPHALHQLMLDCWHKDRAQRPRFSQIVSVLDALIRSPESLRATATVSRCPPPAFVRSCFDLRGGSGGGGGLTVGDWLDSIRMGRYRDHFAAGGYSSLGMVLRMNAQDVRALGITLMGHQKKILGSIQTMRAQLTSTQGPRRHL

[4] = biological target: T2, Serine/threonine-protein kinase TBK1 (Homo sapiens) (UniProt Q9UHD2); experiment: Inhibition of TBK1 (unknown origin) assessed as residual activity at 100 nM by KINOMEscan analysis relative to control
T2 sequence (whole entry): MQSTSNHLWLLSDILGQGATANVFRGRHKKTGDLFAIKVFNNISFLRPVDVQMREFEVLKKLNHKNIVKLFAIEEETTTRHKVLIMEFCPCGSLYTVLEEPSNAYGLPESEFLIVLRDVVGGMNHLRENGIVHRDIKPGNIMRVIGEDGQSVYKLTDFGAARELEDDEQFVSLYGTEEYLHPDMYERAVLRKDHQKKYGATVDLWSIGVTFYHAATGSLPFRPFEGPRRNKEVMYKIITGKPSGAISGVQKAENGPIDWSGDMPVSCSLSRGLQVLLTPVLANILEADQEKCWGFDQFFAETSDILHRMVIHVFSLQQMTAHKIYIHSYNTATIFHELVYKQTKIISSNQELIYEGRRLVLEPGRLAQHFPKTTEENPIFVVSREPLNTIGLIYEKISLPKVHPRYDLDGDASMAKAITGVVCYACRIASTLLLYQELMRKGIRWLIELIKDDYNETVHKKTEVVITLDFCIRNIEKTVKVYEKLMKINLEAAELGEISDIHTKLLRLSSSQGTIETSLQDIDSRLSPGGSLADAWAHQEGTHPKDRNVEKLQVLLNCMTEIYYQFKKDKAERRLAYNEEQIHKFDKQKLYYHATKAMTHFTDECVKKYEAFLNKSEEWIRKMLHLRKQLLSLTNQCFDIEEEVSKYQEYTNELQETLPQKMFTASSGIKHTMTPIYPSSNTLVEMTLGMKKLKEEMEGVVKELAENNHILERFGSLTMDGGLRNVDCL

[5] = tested on: Epidermal growth factor receptor (Homo sapiens), P00533 [UNDEFINED MUTATION]; experiment: Inhibition of EGFR L747-T751del/Sins mutant (unknown origin) assessed as residual activity at 100 nM by KINOMEscan analysis relative to control
Epidermal growth factor receptor (Homo sapiens), P00533 [UNDEFINED MUTATION], sequence (P00533 whole entry, looked up, stated change not applied): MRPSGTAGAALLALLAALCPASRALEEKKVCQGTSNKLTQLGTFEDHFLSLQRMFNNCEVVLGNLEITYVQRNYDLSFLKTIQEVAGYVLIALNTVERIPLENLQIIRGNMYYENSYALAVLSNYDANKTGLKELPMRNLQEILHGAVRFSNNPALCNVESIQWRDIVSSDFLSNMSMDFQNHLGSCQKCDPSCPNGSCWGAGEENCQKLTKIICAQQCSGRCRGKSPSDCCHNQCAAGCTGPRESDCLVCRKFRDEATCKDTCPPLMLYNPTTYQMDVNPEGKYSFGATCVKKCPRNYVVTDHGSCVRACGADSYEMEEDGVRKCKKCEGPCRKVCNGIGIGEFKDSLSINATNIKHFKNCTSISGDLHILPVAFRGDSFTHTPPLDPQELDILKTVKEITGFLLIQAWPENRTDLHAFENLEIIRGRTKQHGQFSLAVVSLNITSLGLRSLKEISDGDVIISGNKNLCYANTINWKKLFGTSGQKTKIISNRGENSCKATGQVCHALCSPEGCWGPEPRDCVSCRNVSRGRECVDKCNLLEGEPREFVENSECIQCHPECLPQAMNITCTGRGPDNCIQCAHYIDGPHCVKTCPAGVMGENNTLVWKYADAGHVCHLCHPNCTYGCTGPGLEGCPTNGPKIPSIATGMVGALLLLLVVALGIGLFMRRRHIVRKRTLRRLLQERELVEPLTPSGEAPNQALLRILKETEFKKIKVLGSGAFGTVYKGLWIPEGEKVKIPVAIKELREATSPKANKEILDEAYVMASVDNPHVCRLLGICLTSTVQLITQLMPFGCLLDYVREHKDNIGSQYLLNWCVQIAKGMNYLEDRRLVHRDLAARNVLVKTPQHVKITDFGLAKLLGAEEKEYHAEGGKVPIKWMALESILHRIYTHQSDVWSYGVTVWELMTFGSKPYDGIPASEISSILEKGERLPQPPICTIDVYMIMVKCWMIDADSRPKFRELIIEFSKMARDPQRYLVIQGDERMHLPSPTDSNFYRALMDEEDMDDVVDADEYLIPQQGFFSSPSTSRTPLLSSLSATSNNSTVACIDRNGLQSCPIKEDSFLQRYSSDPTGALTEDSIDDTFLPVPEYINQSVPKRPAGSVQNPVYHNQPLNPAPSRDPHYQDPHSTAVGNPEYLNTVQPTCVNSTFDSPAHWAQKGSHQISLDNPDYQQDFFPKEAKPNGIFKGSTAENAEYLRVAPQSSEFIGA

[6] = biological target: T3, Dual specificity mitogen-activated protein kinase kinase 5 (Homo sapiens) (UniProt Q13163); experiment: Inhibition of MEK5 (unknown origin) assessed as residual activity at 100 nM by KINOMEscan analysis relative to control
T3 sequence (whole entry): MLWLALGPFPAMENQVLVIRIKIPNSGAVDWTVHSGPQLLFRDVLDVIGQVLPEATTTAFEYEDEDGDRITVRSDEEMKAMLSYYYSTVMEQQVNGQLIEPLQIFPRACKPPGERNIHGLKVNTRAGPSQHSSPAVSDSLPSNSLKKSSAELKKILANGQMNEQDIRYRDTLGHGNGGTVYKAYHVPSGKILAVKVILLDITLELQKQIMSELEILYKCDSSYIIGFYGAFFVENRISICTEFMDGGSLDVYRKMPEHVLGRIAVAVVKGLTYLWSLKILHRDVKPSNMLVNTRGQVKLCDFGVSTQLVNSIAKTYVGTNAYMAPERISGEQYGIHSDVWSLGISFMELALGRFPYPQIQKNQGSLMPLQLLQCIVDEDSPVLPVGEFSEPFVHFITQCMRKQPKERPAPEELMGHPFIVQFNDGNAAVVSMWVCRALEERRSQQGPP

Receptor-type tyrosine-protein kinase FLT3 (Homo sapiens), P36888 [UNDEFINED MUTATION], sequence (P36888 whole entry, looked up, change not shown): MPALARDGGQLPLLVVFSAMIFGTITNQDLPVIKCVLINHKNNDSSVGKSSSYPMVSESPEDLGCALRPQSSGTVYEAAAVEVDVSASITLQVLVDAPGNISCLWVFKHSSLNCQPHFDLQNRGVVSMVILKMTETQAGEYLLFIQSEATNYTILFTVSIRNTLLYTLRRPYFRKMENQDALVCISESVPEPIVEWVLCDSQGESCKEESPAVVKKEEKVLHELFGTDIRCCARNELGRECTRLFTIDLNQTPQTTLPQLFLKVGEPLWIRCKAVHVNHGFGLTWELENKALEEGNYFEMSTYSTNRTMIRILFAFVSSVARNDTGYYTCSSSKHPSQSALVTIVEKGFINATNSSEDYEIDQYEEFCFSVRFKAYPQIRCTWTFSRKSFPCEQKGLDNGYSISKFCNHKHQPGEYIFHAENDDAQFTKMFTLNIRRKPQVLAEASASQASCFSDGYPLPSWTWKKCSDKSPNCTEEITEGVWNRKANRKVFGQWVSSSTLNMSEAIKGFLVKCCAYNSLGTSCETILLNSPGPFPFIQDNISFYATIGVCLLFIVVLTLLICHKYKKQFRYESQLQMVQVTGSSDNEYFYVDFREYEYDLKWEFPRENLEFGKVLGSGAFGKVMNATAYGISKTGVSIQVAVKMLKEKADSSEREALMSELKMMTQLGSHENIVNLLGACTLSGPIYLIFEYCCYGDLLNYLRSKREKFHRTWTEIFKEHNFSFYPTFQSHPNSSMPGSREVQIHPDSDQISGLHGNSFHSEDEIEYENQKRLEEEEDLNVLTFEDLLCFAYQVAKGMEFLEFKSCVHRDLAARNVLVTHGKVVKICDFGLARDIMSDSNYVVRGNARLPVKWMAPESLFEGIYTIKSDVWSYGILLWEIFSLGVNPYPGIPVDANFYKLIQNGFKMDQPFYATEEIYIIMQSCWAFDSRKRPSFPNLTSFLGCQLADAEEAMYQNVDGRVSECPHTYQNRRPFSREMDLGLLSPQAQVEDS

COc1cc2ncnc(N[C@H](C)c3cccc4ccccc34)c2cc1OC
Activity [1]: 100%
Activity [2]: 84%
Activity [3]: 75%
Activity [4]: 96%
Activity [5]: 80%
Activity [6]: 83%

Source: ChEMBL document CHEMBL5678818, “Discovery of potent SOS1 inhibitors that block RAS activation via disruption of the RAS-SOS1 interaction” (Proc Natl Acad Sci U S A, 2019)
